Assay results published in ChEMBL document CHEMBL1134826, “Pyrrolidine inhibitors of human cytosolic phospholipase A2. Part 2: synthesis of potent and crystallized 4-triphenylmethylthio derivative 'pyrrophenone'” (Bioorg Med Chem Lett, 2001).

Key:
Homo sapiens [1] = species: Homo sapiens; assay: Concentration required to inhibit production of LDH from whole blood stimulated with A-23187; type: functional, organism-based
Homo sapiens [2] = species: Homo sapiens; assay: Concentration required to inhibit production of arachidonic acid from whole blood stimulated with A-23187; type: functional, organism-based
Homo sapiens [3] = species: Homo sapiens; assay: Concentration required to inhibit production of LTB4 from whole blood stimulated with A-23187; type: functional, organism-based
THP-1 [4] = assay: Concentration required to inhibit production of arachidonic acid from THP-1 cells stimulated with A-23187; type: functional, cell-based; conditions: Homo sapiens
THP-1 [5] = assay: Concentration required to inhibit production of PGE-2 from THP-1 cells stimulated with A-23187; type: functional, cell-based; conditions: Homo sapiens
Homo sapiens [6] = species: Homo sapiens; assay: Concentration required to inhibit production of TXB2 from whole blood stimulated with A-23187; type: functional, organism-based
THP-1 [7] = assay: Concentration required to inhibit production of LTC4 from THP-1 cells stimulated with A-23187; type: functional, cell-based; conditions: Homo sapiens
Homo sapiens [8] = species: Homo sapiens; assay: Concentration required to inhibit production of PGE-2 from whole blood stimulated with A-23187; type: functional, organism-based

## CCCCC/C=C\C/C=C\C/C=C\C/C=C\CCCC(=O)O [ARACHIDONIC ACID]
Homo sapiens [1]
  IC50: > 10 µM
Homo sapiens [2]
  IC50: > 10 µM
Homo sapiens [3]
  IC50: 0.94 µM
THP-1 [4]
  IC50: 40 µM
THP-1 [5]
  IC50: 0.18 µM
Homo sapiens [6]
  IC50: > 10 µM
THP-1 [7]
  IC50: 0.0047 µM
Homo sapiens [8]
  IC50: > 10 µM

## COc1ccc2c(c1)c(CC(=O)O)c(C)n2C(=O)c1ccc(Cl)cc1 [INDOMETHACIN]
Homo sapiens [1]
  IC50: > 10 µM
Homo sapiens [2]
  IC50: > 10 µM
Homo sapiens [3]
  IC50: > 10 µM
THP-1 [4]
  IC50: > 10 µM
Homo sapiens [6]
  IC50: 0.36 µM
THP-1 [7]
  IC50: > 10 µM
Homo sapiens [8]
  IC50: 0.26 µM

## CCCCC/C=C\C/C=C\C/C=C\C/C=C\CCCC(=O)C(F)(F)F [ARACHIDONYL TRIFLUOROMETHYLKETONE]
Homo sapiens [1]
  IC50: > 10 µM
Homo sapiens [2]
  IC50: > 10 µM
Homo sapiens [3]
  IC50: > 10 µM
THP-1 [4]
  IC50: 86 µM
Homo sapiens [6]
  IC50: > 10 µM
THP-1 [7]
  IC50: 41 µM
Homo sapiens [8]
  IC50: > 10 µM
